Data as given in patent US9751851B2, “Molecules and compositions that inhibit gram negative bacteria and their uses” (THE TRUSTEES OF PRINCETON UNIVERSITY, priority 2013, dated 2017).
Read-outs that look alike come from different tables or passages of the source.

Test system: wild-type P. aeruginosa PA14
Assay: microbe, parasite or virus in culture
Type: cell-based
Conditions: for inhibition at 100 µM: Pseudomonas aeruginosa, PA14, 17 h; for inhibition at 100 µM / Efficacy (%): reduction of pyocyanin vs WT P. aeruginosa PA14: 0% = WT level, 100% = background medium; for inhibition of pyocyanin production (in words): wild-type P. aeruginosa PA14, end point assays at 100 μM; for IC50: WT P. aeruginosa PA14, 17 hr growth, titration, read-out: IC50 for inhibition of pyocyanin production
Protocol: Methods. The oxidized form of pyocyanin imparts a green color to P. aeruginosa cultures, making the production of pyocyanin convenient to monitor by UV/Vis absorbance. Overnight P. aeruginosa cultures were subcultured into 5 mL fresh medium at 1:1000 dilution. Synthetic compounds were assayed at 100 μM for end point assays and at concentrations ranging from 200 nM to 200 μM for titrations following 17 hr of aerobic growth with shaking at 37° C. Cells were separated from culture fluids via centrifugation at 13,000 rpm for 15 min. Culture fluids were passed through 0.22 μm syringe driven filters (Millipore). Cell-free culture fluids were analyzed for pyocyanin using wavelength scans on a Beckman Coulter DU-800 spectrophotometer from 200 nm to 800 nm 695 nm was chosen for graphical representation. Titration data were fit with a variable-slope sigmoidal dose-response curve using GraphPad Prism to determine the IC50 values.
The compounds of the first library were assayed in wild-type (WT) P. aeruginosa PA14. Pyocyanin was used as a read-out for quorum sensing activity based on its absorbance at 695 nm. The efficacy of the compounds at reducing pyocyanin levels was calculated with respect to WT levels of pyocyanin, where WT levels of pyocyanin would lead to a 0% efficacy, and an absorbance equal to the background medium would lead to a 100% efficacy. Agonists that increase pyocyanin production have negative efficacy values.

[1] = read-out: Efficacy (%), Table 4
[2] = read-out: Efficacy (%), Table 3
[3] = read-out: Efficacy (%), Table 2, negative = agonist
[4] = read-out: Efficacy (%), Table 1, negative = agonist

Compound: O=C(COc1cccc(F)c1)Nc1ccnc(C(F)(F)F)c1 [compound 17, 4-amino-2-trifluoromethylpyridine-C6-3-fluorophenoxyhybrid]
- inhibition at 100 µM [1]: 103%
- Efficacy (%) (Table 4): 103 ± 3%
- inhibition of pyocyanin production (in words): highly effective at blocking pyocyanin production

Compound: O=C(CCCCC#Cc1cccc(F)c1)Nc1ccnc(C(F)(F)F)c1 [S82, 7-(3-fluorophenyl)-N-(2-(trifluoromethyl)pyridin-4-yl)hept-6-ynamide]
- inhibition at 100 µM [1]: 97%
- Efficacy (%) (Table 4): 97 ± 4%

Compound: O=C(COc1cccc(Br)c1)Nc1ccncc1C(F)(F)F [S62, 4-amino-3-trifluoromethylpyridine-C6-3-bromophenoxyhybrid]
- inhibition at 100 µM [2]: 15%
- Efficacy (%) (Table 3): 15 ± 7%

Compound: CCCCCCCCCCCCNC(=O)Cc1c[nH]c2ccccc12 [S34, C12-3-(methylamido)indole]
- inhibition at 100 µM [3]: 0.6 ± 4%

Compound: CCCCCCCCCCCC(=O)Nc1ccc2[nH]ccc2c1 [S25, C12-5-aminoindole]
- inhibition at 100 µM [3]: -11 ± 3%

Compound: O=C(COc1ccccc1F)Nc1ccnc(C(F)(F)F)c1 [S69, 4-amino-2-trifluoromethylpyridine-C6-2-fluorophenoxyhybrid]
- inhibition at 100 µM [1]: 78 ± 3%

Compound: COc1cc(NC(=O)COc2cccc(Br)c2)ccn1 [S44, 4-amino-2-methoxypyridine-C5-3-bromophenoxyhybrid]
- Efficacy (%) (Table 3, listed as Table 3 entry 6): 81%
- Efficacy (%) (Table 3, listed as drawing 64): 81 ± 6%

Compound: O=C(COc1cccc(Br)c1)Nc1ccnc(Cl)c1 [S55, 4-amino-2-chloropyridine-C6-3-bromophenoxyhybrid]
- inhibition at 100 µM [2]: 89%
- Efficacy (%) (Table 3): 89 ± 5%

Compound: O=C(CCCOc1cccc(Br)c1)N[C@H]1CCSC1=O [(S)-mBTL]
- IC50: 4 µM

Compound: O=C(COc1ccccc1Br)Nc1ccnc(C(F)(F)F)c1 [S65, 4-amino-2-trifluoromethylpyridine-C6-2-bromophenoxyhybrid]
- inhibition at 100 µM [1]: 94%
- Efficacy (%) (Table 4): 94 ± 4%

Compound: CCCCCCCCCC(=O)CC(=O)Nc1cnccn1 [S4, 3OC12-2-aminopyrazine]
- inhibition at 100 µM [4]: 21 ± 13%

Compound: O=C(COc1c(F)cccc1F)Nc1ccnc(C(F)(F)F)c1 [S71, 4-amino-2-trifluoromethylpyridine-C6-2,6-bisfluorophenoxyhybrid]
- inhibition at 100 µM [1]: 66 ± 4%

Compound: CCCCCCCCCCCC(=O)NCc1ccncc1 [S22, C12-4-(aminomethyl)pyridine]
- inhibition at 100 µM [3]: 7.7 ± 5%

Compound: CCCCCCCCCCCC(=O)Nc1ccncc1 [S8, C12-4-aminopyridine]
- inhibition at 100 µM [4]: 28 ± 11%

Compound: COc1cc(NC(=O)COc2cccc(Br)c2)nc(OC)n1 [S54, 4-amino-2,6-dimethoxypyrimidine-C6-3-bromophenoxyhybrid]
- inhibition at 100 µM [2]: 15 ± 7%

Compound: N#Cc1cccc(OCC(=O)Nc2ccnc(C(F)(F)F)c2)c1 [S74, 4-amino-2-trifluoromethylpyridine-C6-3-cyanophenoxyhybrid]
- inhibition at 100 µM [1]: 0.48 ± 7%

Compound: O=C(COc1cccc(C(F)(F)F)c1)Nc1ccnc(C(F)(F)F)c1 [S75, 4-amino-2-trifluoromethylpyridine-C6-3-trifluoromethylphenoxyhybrid]
- inhibition at 100 µM [1]: 59 ± 3%

Compound: CCCCCCCCCCCCNC(=O)c1c[nH]c2ccccc12 [S33, C12-3-amidoindole]
- inhibition at 100 µM [3]: 4.4 ± 3%

Compound: chlorothiolactone [CTL, reference compound]
- inhibition of pyocyanin production (in words): Neither CL nor CTL inhibited pyocyanin production

Compound: O=C(COc1ccccc1O)Nc1ccnc(C(F)(F)F)c1 [S78, 4-amino-2-trifluoromethylpyridine-C6-2-hydroxyphenoxyhybrid]
- inhibition at 100 µM [1]: 95%
- Efficacy (%) (Table 4): 95 ± 4%

Compound: CCCCCCCCCCCC(=O)Nc1ncccn1 [S11, C12-2-aminopyrimidine]
- inhibition at 100 µM [4]: 23 ± 3%

Compound: O=C(CCCCCCCCCCN=C=S)CC(=O)NC1CCOC1=O (stereo not drawn) [itc-13, reference compound]
- IC50: 56 µM

Compound: O=C(COc1cccc(Br)c1)Nc1ccnc(C(F)(F)F)c1 [S57, 4-amino-2-trifluoromethylpyridine-C5-3-bromophenoxyhybrid]
- Efficacy (%) (Table 3, listed as Table 3 entry 17): 95%
- Efficacy (%) (Table 3, listed as drawing 75): 95 ± 5%

Compound: O=C(COc1cccc(Br)c1)Nc1ccncc1 [S39, 4-aminopyridine-C6-3-bromophenoxyhybrid]
- Efficacy (%) (Table 3, listed as drawing 60): 53 ± 1%

Compound: CCCCCCCCCCCC(=O)Nc1cccnc1 [S7, C12-3-aminopyridine]
- inhibition at 100 µM [4]: 34 ± 3%

Compound: O=C(CNc1cccc(F)c1)Nc1ccnc(C(F)(F)F)c1 [S80, 4-amino-2-trifluoromethylpyridine-C6-3-fluoroaniline hybrid]
- inhibition at 100 µM [1]: 100%
- Efficacy (%) (Table 4): 100 ± 4%

Compound: O=C(COc1cccc(Br)c1)Nc1cccc(C(F)(F)F)c1 [S59, 1-amino-3-trifluoromethyl-C6-3-bromophenoxyhybrid]
- inhibition at 100 µM [2]: 62%
- Efficacy (%) (Table 3): 62 ± 6%

Compound: O=C(COc1ccc(F)cc1)Nc1ccnc(C(F)(F)F)c1 [S68, 4-amino-2-trifluoromethylpyridine-C6-4-fluorophenoxyhybrid]
- inhibition at 100 µM [1]: 54%
- Efficacy (%) (Table 4): 54 ± 4%

Compound: O=C(COc1cccc(Br)c1)Nc1cc(C(F)(F)F)cc(C(F)(F)F)c1 [S60, 1-amino-3,5-bis(trifluoromethyl)-C6-3-bromophenoxyhybrid]
- inhibition at 100 µM [2]: 44%
- Efficacy (%) (Table 3): 44 ± 8%

Compound: CCCCCCCCCCCCNC(=O)c1ccncc1 [S21, C12-isonicotinic amide]
- inhibition at 100 µM [3]: 13 ± 3%

Compound: CCCCCCCCCCCC(=O)Nc1ccncn1 [S9, C12-4-aminopyrimidine]
- inhibition at 100 µM [4]: 55 ± 8%

Compound: CCCCCCCCCC(=O)CC(=O)Nc1cccnc1 [S2, 3OC12-3-aminopyridine]
- inhibition at 100 µM [4]: 10 ± 9%

Compound: O=C(COc1cccc(Br)c1)Nc1ccnc(F)c1 [S41, 4-amino-2-fluoropyridine-C6-3-bromophenoxyhybrid]
- inhibition at 100 µM [2]: 31 ± 6%

Compound: CCCCCCCCCCCC(=O)Nc1cc(C)nc2ccccc12 [S13, C12-4-amino-2-methylquinoline]
- inhibition at 100 µM [3]: -24 ± 2%

Compound: COc1cc(NC(=O)COc2cccc(Br)c2)ncn1 [S52, 4-amino-6-methoxypyrimidine-C6-3-bromophenoxyhybrid]
- inhibition at 100 µM [2]: 41%
- Efficacy (%) (Table 3): 41 ± 9%

Compound: O=C(COc1ccc(F)cc1F)Nc1ccnc(C(F)(F)F)c1 [S70, 4-amino-2-trifluoromethylpyridine-C6-2,4-bisfluorophenoxyhybrid]
- inhibition at 100 µM [1]: 49 ± 3%

Compound: CCCCCCCCCCCC(=O)O/N=C1\COc2ccccc21 [S29, C12-dihydrobenzofuran acylhydroxylamine]
- inhibition at 100 µM [3]: 12 ± 3%

Compound: CCCCCCCCCCCC(=O)Nc1ccnc(C(F)(F)F)c1 [S20, C12-4-amino-2-trifluoromethylpyridine]
- inhibition at 100 µM [3]: 27 ± 3%

Compound: CCCCCCCCCCCC(=O)Nc1ccccn1 [S6, C12-2-aminopyridine]
- inhibition at 100 µM [4]: 55 ± 3%

Compound: CCCCCCCCCCCC(=O)Nc1ccc2c(c1)c1ccccc1n2CC [S30, C12-3-amino-1-ethylcarbazole]
- inhibition at 100 µM [3]: -1 ± 3%

Compound: Cc1cccc(OCC(=O)Nc2ccnc(C(F)(F)F)c2)c1 [S76, 4-amino-2-trifluoromethylpyridine-C6-3-methylphenoxyhybrid]
- inhibition at 100 µM [1]: 81%
- Efficacy (%) (Table 4): 81 ± 4%

Compound: O=C(CSc1cccc(F)c1)Nc1ccnc(C(F)(F)F)c1 [S79, 4-amino-2-trifluoromethylpyridine-C6-3-fluoroarylsulfide hybrid]
- inhibition at 100 µM [1]: 94%
- Efficacy (%) (Table 4): 94 ± 4%

Compound: CCCCCCOC(=O)C1COc2ccccc21 (stereo not drawn) [S28, C6-dihydrobenzofuran ester]
- inhibition at 100 µM [3]: 1.5 ± 8%

Compound: CCCCCCCCCCCC(=O)Nc1ccncc1C(F)(F)F [S14, C12-4-amino-3-trifluoromethylpyridine]
- inhibition at 100 µM [3]: -17 ± 2%
